Assay results reported in patent US20230133958A1, “COMPOUNDS USEFUL IN MODULATING EGFR AND PI3K” (Mekanistic Therapeutics LLC, priority 2021, published 2023).
≈ marks a conversion by molar mass, not a printed value.

Columns and labels:
[1] = biological target: HER2 (Homo sapiens, UniProt P04626); assay: Z'-LYTE / Adapta biochemical kinase assay, HER2
Excerpt: (§1) The Z′-LYTE® biochemical assay employs a fluorescence-based, coupled-enzyme format and is based on the differential sensitivity of phosphorylated and non-phosphorylated peptides to proteolytic cleavage. The peptide substrate is labeled with two fluorophores—one at each end—that make up a FRET pair. In the primary reaction, the kinase transfers the gamma-phosphate of ATP to a single tyrosine, serine or threonine residue in a synthetic FRET-peptide. In the secondary reaction, a site-specific protease recognizes and cleaves non-phosphorylated FRET-peptides. Phosphorylation of FRET-peptides suppresses cleavage by the Development Reagent. […] A ratiometric method, which calculates the ratio (the Emission Ratio) of donor emission to acceptor emission after excitation of the donor fluorophore at 400 nm, is used to quantitate reaction progress.
(§2) A significant benefit of this ratiometric method for quantitating reaction progress is the elimination of well-to-well variations in FRET-peptide concentration and signal intensities. […]
(§3) Both cleaved and uncleaved FRET-peptides contribute to the fluorescence signals and therefore to the Emission Ratio. The extent of phosphorylation of the FRET-peptide can be calculated from the Emission Ratio. […]

[2] = biological target: HER4 (Homo sapiens, UniProt Q15303); assay: Z'-LYTE / Adapta biochemical kinase assay, HER4
Excerpt: as §1, §2, §3

[3] = biological target: P13Kγ (Homo sapiens, UniProt P48736); assay: Z'-LYTE / Adapta biochemical kinase assay, PI3Kγ
Excerpt: as §1, §2, §3

[4] = biological target: P13Kδ (Homo sapiens, UniProt O00329); assay: Z'-LYTE / Adapta biochemical kinase assay, PI3Kδ
Excerpt: as §1, §2, §3

[5] = biological target: MTOR (Homo sapiens, UniProt P42345); assay: Z'-LYTE / Adapta biochemical kinase assay, MTOR
Excerpt: as §1, §2, §3

[6] = Solubility assessment in aqueous media; assay type: physicochemical; details: kinetic from dmso stock, 25° C.
Procedure: Preparation of stock solutions: The stock solutions of test compounds and control compound diclofenac were prepared in DMSO at the concentrations of 10 mM.
Procedure for solubility determination: 15 µL of stock solution (10 mM) of each sample was placed in order into their proper 96-well rack. 485 µL of (SIF, SGF, PBS 7.4, FESSIF, or FESSGF) was added into each vial of the cap-less Solubility Sample plate. The assay was performed in duplicate. Add one stir stick to each vial and seal using a molded PTFE/Silicone plug. […] After completion of the 2 hours, plugs were removed and the stir sticks were removed using a big magnet, the samples from the Solubility Sample plate were transferred into the filter plate. Using the Vacuum Manifold, all the samples were filtered. Aliquot of 5 µL and 5 µL DMSO were taken from the filtrate followed by addition of 490 µL of a mixture of H2O and acetonitrile containing internal standard (1:1). A certain proportion of ultrapure water was used to dilute the diluent according to the peak shape. The dilution factor was changed according to the solubility values and the LC-MS signal response.
Preparation of 300 µM standards (STD): From the 10 mM DMSO STD plate, 6 µL was transferred into the remaining empty plate, and then 194 µL of DMSO was added to that plate to have a STD concentration of 300 µM. From the 300 µM DMSO STD plate, 5 µL DMSO STD and 5 µL SIF was transferred into the remaining empty plate, and then 490 µL of a mixture of H2O and acetonitrile containing internal standard (1:1) was added to that plate to have a final STD concentration of 3 µM. […]
Procedure for sample analysis: The plate was placed into the well plate autosampler. The samples were evaluated by LC-MS/MS analysis.
Data analysis: All calculations were carried out using Microsoft Excel. The filtrate was analyzed and quantified against a standard of known concentration using LC coupled with mass spectral peak identification and quantitation. Solubility values of the test compound and control compound were calculated as follows: […]

P13Kγ, sequence (P48736 whole entry, stated change not applied): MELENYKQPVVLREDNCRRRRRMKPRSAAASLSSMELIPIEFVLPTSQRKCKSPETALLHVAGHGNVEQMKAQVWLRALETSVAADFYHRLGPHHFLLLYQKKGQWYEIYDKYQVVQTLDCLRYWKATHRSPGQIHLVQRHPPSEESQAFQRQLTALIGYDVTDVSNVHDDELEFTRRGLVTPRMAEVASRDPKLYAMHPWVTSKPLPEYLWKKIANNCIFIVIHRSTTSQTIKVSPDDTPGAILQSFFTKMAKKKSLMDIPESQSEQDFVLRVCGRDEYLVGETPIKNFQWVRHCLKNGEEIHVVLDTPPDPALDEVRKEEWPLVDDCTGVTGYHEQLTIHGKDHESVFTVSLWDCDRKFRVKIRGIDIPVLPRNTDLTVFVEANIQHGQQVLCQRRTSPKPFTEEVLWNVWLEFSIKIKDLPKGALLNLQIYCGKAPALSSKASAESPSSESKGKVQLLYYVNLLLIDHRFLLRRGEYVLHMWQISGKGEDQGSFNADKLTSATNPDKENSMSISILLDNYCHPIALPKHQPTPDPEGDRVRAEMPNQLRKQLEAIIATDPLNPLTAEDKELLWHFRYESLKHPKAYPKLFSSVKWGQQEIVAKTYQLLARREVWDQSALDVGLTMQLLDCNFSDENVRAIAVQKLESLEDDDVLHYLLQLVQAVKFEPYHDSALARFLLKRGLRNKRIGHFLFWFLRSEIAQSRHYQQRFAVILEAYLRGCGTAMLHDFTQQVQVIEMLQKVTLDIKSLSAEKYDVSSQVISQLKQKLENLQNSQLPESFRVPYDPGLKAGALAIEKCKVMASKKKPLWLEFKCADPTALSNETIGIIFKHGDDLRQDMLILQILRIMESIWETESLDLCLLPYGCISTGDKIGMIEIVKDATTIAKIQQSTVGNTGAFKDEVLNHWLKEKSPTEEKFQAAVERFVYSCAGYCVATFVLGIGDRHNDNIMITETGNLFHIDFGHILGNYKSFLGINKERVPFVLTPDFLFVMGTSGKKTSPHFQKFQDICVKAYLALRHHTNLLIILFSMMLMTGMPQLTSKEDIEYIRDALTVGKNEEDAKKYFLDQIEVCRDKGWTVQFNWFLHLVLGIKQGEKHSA
P13Kδ, sequence (O00329 whole entry, stated change not applied): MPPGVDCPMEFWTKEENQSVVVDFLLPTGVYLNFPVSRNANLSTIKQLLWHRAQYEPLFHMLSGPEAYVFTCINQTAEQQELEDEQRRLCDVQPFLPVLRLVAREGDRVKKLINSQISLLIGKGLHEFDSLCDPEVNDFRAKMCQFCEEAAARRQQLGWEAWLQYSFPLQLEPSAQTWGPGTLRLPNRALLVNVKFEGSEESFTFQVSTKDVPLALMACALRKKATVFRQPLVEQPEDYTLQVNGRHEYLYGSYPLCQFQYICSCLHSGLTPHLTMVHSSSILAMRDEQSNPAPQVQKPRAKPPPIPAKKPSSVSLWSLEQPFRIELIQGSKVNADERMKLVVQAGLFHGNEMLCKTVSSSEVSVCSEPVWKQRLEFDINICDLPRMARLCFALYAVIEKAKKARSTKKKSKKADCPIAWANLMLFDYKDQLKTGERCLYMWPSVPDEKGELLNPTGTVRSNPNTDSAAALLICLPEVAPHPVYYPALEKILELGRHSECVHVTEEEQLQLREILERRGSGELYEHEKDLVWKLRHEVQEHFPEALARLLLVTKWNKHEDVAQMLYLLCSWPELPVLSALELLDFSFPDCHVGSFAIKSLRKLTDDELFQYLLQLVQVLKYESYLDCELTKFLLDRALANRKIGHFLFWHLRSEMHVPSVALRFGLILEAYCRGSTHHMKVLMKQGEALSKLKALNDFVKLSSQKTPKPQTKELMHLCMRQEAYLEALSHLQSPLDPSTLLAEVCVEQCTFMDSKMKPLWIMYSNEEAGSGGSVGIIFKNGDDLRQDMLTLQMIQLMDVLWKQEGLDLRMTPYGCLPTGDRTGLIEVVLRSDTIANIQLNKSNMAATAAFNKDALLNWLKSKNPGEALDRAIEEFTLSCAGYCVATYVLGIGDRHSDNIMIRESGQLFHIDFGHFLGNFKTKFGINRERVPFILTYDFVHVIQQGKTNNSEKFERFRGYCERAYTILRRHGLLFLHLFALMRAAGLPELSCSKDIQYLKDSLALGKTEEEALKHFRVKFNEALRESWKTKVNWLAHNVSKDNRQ
P13Kδ, sequence (P27986 2-724 partner limits assumed): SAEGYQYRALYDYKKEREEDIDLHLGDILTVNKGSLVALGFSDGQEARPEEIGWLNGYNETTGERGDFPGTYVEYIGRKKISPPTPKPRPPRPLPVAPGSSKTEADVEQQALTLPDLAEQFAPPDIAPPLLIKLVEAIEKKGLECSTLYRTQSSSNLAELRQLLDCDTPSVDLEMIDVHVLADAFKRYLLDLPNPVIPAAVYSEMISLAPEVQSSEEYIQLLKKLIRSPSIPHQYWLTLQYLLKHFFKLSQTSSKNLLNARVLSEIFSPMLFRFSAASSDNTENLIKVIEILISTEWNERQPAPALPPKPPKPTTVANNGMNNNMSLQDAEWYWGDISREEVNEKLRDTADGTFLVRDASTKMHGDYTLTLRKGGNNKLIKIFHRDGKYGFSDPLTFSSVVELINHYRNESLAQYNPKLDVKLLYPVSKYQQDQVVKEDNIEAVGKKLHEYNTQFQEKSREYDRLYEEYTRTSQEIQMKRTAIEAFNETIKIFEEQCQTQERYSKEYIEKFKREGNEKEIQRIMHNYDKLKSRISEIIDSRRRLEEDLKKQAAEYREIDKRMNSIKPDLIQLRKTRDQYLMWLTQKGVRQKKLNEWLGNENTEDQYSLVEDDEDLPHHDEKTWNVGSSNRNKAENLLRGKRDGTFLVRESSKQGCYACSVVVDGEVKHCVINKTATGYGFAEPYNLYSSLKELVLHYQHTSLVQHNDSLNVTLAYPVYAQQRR
HER2, sequence (P04626 23-1255): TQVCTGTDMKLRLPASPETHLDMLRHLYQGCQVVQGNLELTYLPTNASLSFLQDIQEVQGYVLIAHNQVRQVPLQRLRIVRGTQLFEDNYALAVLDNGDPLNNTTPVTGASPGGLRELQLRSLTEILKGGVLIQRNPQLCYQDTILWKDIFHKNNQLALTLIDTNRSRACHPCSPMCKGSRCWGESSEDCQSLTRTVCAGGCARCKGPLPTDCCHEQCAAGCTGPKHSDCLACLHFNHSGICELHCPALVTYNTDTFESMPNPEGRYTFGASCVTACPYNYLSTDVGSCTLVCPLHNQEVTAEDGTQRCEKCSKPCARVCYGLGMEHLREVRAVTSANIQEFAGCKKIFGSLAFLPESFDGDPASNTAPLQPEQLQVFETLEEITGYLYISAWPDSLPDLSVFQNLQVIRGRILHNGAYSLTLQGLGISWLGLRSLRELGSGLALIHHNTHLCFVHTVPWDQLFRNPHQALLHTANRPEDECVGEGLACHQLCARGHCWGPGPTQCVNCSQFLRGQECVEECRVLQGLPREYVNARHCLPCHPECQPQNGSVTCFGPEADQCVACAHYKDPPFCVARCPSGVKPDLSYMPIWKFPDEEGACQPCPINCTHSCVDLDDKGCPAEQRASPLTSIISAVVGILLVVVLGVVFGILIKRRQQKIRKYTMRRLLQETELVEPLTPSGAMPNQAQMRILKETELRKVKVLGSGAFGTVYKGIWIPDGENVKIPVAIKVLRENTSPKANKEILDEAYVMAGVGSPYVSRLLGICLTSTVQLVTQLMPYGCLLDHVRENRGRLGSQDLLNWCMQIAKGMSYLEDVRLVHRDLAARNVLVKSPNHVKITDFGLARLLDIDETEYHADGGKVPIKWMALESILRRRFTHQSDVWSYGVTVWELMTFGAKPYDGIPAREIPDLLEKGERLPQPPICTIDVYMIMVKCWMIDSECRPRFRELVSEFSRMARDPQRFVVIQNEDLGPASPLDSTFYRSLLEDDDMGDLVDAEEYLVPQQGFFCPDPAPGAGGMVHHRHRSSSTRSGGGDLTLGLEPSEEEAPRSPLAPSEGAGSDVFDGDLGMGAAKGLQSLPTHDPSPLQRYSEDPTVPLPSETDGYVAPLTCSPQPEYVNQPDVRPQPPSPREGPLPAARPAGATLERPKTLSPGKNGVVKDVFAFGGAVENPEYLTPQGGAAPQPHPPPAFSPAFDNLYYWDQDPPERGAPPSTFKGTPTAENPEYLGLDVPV

CS(=O)(=O)Nc1cc(-c2ccc3ncnc(Nc4cccc(Cl)c4F)c3c2)cnc1Cl [Compound 6, N-[2-chloro-5-[4-(3-chloro-2-fluoro-anilino)quinazolin-6-yl]-3-pyridyl] methanesulfonamide]
IC50 [1]: > 200 nM | IC50 [2]: > 200 nM | IC50 [3]: ≤ 2 nM | IC50 [4]: ≤ 2 nM | IC50 [5]: 2 to 20 nM | solubility at 2 h ([6]; PBS pH 7.4, aqueous buffer, pH 7.4 Buffer): 5 to 100 µM (≈ 2.39 to 47.8 µg/mL) | solubility at 2 h ([6]; fassgf or other biorelevant, Simulated Intestinal Fluid (SIF)): 5 to 100 µM (≈ 2.39 to 47.8 µg/mL) | solubility at 2 h ([6]; Simulated Gastric Fluid (SGF)): > 200 µM
